Laboratory results reported in ChEMBL document CHEMBL1201862, “PubChem BioAssay data set” (2004).
Values belong to the compound of their own block, whether it stands above or below them. Activity calls are given as the source filed them.

Key:
[1] = target: Potassium voltage-gated channel subfamily KQT member 2 (Rattus norvegicus, UniProt O88943); experiment: potentiation of rat KCNQ2 current – cell-based, retigabine-insensitive compounds, dose response (AID 2654); type: functional
[2] = target: Potassium voltage-gated channel subfamily KQT member 2 (Rattus norvegicus, UniProt O88943, W236L); experiment: potentiation of rat KCNQ2 current – cell-based, automated electrophysiology, mechanism study for KCNQ2 potentiator project, dose response (AID 2603); type: functional
Sequence of Potassium voltage-gated channel subfamily KQT member 2 (Rattus norvegicus, UniProt O88943, W236L) (O88943 whole entry W236L, the tested form may be a part): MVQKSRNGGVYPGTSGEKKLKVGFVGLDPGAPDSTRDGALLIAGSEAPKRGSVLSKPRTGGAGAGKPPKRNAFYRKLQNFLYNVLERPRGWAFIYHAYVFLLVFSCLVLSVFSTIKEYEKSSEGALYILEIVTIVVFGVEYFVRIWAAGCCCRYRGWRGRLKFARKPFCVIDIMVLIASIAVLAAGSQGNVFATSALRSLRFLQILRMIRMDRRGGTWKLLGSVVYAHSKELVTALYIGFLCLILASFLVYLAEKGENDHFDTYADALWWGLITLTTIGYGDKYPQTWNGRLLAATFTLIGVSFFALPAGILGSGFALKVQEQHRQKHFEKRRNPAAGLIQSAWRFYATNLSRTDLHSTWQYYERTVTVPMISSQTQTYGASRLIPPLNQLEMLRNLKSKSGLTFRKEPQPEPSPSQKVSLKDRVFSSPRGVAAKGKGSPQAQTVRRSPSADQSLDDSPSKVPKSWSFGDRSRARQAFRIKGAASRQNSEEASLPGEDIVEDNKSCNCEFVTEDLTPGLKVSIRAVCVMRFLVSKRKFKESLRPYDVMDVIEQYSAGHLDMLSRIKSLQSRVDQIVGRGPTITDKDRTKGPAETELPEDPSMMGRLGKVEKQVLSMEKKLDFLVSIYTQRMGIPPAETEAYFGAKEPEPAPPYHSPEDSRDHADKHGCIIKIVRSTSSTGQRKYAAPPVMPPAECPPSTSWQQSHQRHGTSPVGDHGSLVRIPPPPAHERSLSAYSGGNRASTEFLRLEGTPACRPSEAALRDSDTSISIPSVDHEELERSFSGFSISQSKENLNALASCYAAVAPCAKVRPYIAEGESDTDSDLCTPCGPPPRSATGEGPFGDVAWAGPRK

[3] = target: NACHT, LRR and PYD domains-containing protein 3 (Homo sapiens, UniProt Q96P20); experiment: NALP3 inhibitors in yeast, dose response, luminescent (AID 488799); type: functional
Sequence of NACHT, LRR and PYD domains-containing protein 3 (Q96P20 whole entry, the tested form may be a part): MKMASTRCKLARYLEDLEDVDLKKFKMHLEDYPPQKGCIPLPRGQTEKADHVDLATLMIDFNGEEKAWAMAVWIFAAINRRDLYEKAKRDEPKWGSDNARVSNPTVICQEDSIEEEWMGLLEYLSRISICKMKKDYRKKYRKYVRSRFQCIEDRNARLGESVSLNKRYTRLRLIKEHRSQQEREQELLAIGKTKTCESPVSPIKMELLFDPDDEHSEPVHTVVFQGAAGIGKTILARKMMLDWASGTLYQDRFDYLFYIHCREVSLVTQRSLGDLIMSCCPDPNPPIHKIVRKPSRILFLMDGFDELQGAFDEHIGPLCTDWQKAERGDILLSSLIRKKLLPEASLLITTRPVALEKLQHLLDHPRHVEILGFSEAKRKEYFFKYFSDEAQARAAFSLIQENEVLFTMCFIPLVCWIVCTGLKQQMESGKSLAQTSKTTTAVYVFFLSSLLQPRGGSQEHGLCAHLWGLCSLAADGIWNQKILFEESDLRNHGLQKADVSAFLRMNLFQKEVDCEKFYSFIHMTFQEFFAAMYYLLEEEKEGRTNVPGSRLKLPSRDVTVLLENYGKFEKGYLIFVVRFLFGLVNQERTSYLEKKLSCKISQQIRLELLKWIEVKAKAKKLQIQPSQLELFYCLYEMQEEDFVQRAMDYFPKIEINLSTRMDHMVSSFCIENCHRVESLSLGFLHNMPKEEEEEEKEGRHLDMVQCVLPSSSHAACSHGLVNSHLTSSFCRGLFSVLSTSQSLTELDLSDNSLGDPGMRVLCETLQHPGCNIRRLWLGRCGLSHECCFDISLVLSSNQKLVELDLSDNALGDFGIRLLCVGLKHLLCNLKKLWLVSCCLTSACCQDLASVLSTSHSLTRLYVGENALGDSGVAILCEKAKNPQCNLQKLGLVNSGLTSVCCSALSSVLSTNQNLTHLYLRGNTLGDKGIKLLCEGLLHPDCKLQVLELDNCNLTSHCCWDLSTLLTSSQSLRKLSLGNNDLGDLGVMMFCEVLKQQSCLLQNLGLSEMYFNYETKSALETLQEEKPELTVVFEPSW

[4] = target: T1, Luciferin 4-monooxygenase (Photinus pyralis, UniProt P08659); experiment: inhibition of purified Photinus pyralis luciferase – biochemical, luminescence, dose response (AID 1891)
T1 sequence (P08659 whole entry): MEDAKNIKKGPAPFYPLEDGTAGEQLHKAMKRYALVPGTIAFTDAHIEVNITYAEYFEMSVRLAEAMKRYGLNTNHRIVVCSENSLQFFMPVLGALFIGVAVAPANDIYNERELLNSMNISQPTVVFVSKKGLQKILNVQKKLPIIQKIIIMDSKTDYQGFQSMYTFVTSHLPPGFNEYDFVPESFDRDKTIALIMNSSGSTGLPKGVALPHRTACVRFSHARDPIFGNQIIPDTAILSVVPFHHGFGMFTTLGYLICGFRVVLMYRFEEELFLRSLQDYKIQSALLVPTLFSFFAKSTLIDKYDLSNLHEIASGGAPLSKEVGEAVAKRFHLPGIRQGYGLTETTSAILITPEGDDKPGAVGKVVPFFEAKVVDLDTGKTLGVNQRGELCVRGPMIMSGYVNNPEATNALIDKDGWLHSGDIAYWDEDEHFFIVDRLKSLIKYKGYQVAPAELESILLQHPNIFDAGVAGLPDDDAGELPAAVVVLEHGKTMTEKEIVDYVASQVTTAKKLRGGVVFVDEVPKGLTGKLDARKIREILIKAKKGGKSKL

[5] = PAR1 agonist-induced platelet activation inhibition – cell-based, fluorescence, flow cytometry, human platelets, dose response (AID 2511); type: functional
[6] = Luminescence Cell-Based Dose Confirmation HTS to Identify Inhibitors of Platelet Dense Granule Release. [Related pubchem assays: 1663 (Primary HTS), 1678 (Summary of Project)]; type: functional
[7] = blockers of SFLLRN-triggered platelet ATP secretion – cell-based, human platelets, luminescence, dry powder, dose response (AID 493100); type: functional
HEK293 [8] = experiment: PMA/Ionomycin induced NF-kB luciferase assay in 293- NF-kB-Luc stable cells. [Related pubchem assays: 1299, 1270, 1295, 1375, 1287, 1281, 1293, 1291, 1289, 1280, 465, 1364, 1282, 1372, 1365, 1370, 1367, 1366, 1269, 1373, 1292, 1290, 1302, 1371, 1283, 1271, 1294, 1374, 1368, 1369 ]; type: functional, cell-based; conditions: Homo sapiens
HEK293 [9] = experiment: Cytotoxicity assay in HEK293 cells. [Related pubchem assays (depositor defined):AID1266, AID1269, AID1270, AID1271, AID1280, AID1281, AID1282, AID1283, AID1287, AID1289, AID1290, AID1291, AID1292, AID1293, AID1294, AID1295, AID1299, AID1302, AID1364, AID1365, AID1366, AID1367, AID1369, AID1370, AID1371, AID1372, AID1373, AID1374, AID1375, AID1384 …; type: functional, cell-based; conditions: Homo sapiens
[10] = off-target signal loss in HeLa-CEM21 co-culture – HeLa F-luc CTL cells, cherry-picked, counter-screen for HIV-1 Env fusion inhibitor project, dose response (AID 652040); type: functional, cell-based;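 note: potency for signal decrease marking cytotoxic or nonspecific inhibition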
[11] = HIV-1 AD8 envelope cell-cell fusion blockers – cherry-pick, dose response (AID 652062); type: functional, cell-based;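 note: luciferase signal from cell-cell fusion driven by HIV-1 clade B AD8 Env; potency is for inhibitors of fusion seen as a drop in luminescence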
[12] = blockers of HIV-1 ZM109 envelope-driven cell-cell fusion – HeLa effector, CEM target cells, luciferase, cherry-pick, dose response (AID 652058); type: functional, cell-based;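 note: luciferase signal from HIV-1 Env mediated cell-cell fusion of effector and target cells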
[13] = target: Heat shock protein HSP 90-alpha (Homo sapiens, UniProt P07900); experiment: Luminescence-based dose response biochemical high throughput screening assay for inhibitors of the Heat Shock Protein 90 (HSP90). [Related pubchem assays: 1831 (Summary AID.), 1846 (Confirmation screen.), 1789 (Primary screen.)]
[14] = blockers of HIV-1 envelope-mediated cell-cell fusion – cherry-pick, dose response (AID 652057); type: functional, cell-based
HEK293 [15] = experiment: TNF Induced NF-kB Luciferase in 293-NF-kB-Luc Stable Cells. [Related pubchem assays: 1266, 1299, 1269, 1373, 1292, 1290, 1302, 1371, 1283, 1270, 1295, 1271, 1375, 1294, 1374, 1281, 1293, 1291, 1289, 1280, 465, 1368, 1364, 1282, 1372, 1365, 1369, 1370, 1367, 1366 ]; type: functional, cell-based; conditions: Homo sapiens
Paired box protein Pax-8 = Paired box protein Pax-8 (Homo sapiens, UniProt Q06710); experiment: PAX8 transcriptional activity inhibition in RMG-I – RMG-I cells, luciferase, cherry-pick, dose response (AID 687027); type: functional, cell-based;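 note: luciferase reporter driven by Pax8 target thyroperoxidase promoter measured by SteadyGlo luminescence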
Sequence of Paired box protein Pax-8 (Q06710 whole entry): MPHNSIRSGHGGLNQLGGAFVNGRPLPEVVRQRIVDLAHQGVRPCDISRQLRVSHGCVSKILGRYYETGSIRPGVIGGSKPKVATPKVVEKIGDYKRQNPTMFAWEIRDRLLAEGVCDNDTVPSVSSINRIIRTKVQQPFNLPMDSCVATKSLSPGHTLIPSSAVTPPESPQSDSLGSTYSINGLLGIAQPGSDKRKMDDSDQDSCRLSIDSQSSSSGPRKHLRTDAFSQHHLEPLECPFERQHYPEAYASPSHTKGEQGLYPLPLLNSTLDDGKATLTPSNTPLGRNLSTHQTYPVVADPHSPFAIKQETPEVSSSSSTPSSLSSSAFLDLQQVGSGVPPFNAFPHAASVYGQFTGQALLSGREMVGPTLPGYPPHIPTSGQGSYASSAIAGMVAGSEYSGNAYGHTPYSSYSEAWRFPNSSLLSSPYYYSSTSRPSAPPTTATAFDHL

HEK293 [16] = experiment: PMA/Ionomycin-induced IL-8 production in HEK293- NF-kB-Luc stable cells. [Related pubchem assays: 1299, 1295, 1375, 1287, 1281, 1293, 1291, 1289, 1280, 465, 1364, 1282, 1372, 1365, 1367, 1366, 1266, 1269, 1373, 1292, 1290, 1302, 1371, 1283, 1271, 1294, 1374, 1368, 1369 ]; type: functional, cell-based; conditions: Homo sapiens
[17] = target: T1, Luciferin 4-monooxygenase; experiment: In vitro luciferase assay using purified luciferase. [Related pubchem assays: 1299, 1270, 1295, 1375, 1287, 1281, 1293, 1291, 1289, 1280, 465, 1364, 1282, 1372, 1365, 1370, 1367, 1366, 1266, 1373, 1292, 1290, 1302, 1371, 1283, 1271, 1294, 1374, 1368, 1369 ]
[18] = HEK-293T cell viability reduction – luminescence, B-cell screen hits, cytotoxicity control for BCR NF-kB inhibitor project, dose response (AID 489021); type: functional, cell-based;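 note: HEK-293T cells carrying an NF-kB luciferase reporter; cells exposed to compound for about 14 hours before viability readout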
X-box-binding protein 1 = X-box-binding protein 1 (Homo sapiens, UniProt P17861); type: functional, Cricetulus griseus;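 note: confirmatory dose-response counter-screen serving a CHOP assay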
Sequence of X-box-binding protein 1 (P17861 whole entry): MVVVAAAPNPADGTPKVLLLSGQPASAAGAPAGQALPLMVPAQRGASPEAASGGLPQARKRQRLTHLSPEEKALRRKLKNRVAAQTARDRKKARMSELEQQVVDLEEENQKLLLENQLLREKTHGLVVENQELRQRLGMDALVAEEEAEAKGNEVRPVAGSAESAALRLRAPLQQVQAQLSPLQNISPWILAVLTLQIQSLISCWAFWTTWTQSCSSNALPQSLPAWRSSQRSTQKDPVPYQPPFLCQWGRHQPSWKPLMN

[19] = target: T2, Eukaryotic translation initiation factor 2-alpha kinase 3 (Homo sapiens, UniProt Q9NZJ5); experiment: Counterscreen assay for PERK inhibitors: Dose response cell-based high throughput screening assay to measure inhibition of PERK at 6 hours. [Related pubchem assays: 1522, 1416 ]; type: functional
T2 sequence (Q9NZJ5 whole entry): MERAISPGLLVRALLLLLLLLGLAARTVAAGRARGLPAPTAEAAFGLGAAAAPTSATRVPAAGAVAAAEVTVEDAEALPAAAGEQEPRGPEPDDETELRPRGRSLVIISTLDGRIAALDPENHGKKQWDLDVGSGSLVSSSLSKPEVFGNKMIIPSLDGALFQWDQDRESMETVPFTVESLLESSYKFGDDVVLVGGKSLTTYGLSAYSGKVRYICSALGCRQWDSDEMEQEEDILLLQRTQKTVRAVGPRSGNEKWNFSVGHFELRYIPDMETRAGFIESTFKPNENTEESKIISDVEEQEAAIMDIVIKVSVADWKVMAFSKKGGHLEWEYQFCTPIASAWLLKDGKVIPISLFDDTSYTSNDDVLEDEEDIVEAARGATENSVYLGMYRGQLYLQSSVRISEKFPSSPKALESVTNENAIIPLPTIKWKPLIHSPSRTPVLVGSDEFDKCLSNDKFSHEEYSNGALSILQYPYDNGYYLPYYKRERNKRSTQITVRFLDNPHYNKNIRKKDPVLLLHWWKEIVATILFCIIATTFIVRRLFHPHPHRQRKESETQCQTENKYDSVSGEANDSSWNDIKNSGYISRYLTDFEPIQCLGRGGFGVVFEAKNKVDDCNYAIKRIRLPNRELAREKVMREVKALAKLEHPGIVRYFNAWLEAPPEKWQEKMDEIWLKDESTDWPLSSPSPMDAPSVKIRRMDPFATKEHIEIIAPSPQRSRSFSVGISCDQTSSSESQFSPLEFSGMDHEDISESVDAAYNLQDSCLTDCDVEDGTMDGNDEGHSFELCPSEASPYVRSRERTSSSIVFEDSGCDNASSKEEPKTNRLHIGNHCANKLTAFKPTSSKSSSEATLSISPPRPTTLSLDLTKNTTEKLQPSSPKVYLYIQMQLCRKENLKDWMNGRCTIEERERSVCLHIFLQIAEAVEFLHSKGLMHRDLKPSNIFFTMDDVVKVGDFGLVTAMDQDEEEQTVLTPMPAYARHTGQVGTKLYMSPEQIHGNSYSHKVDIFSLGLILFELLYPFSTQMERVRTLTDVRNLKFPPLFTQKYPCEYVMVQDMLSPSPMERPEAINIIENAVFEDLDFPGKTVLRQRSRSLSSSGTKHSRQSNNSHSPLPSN

[20] = target: T2, Eukaryotic translation initiation factor 2-alpha kinase 3; experiment: Dose response cell-based high-throughput screening assay to measure PERK inhibition. [Related pubchem assays: 1416 ]; type: functional

Sequence of Potassium voltage-gated channel subfamily KQT member 2 (Rattus norvegicus, UniProt O88943) (O88943 whole entry): as the sequence (O88943 whole entry W236L, the tested form may be a part) above, with L236W counted along it

Compound: c1ccc(OCc2nnnn2-c2ccccc2)cc1
- IC50 [3]: 6 µM (active)

Compound: Cc1ccc(-c2c(C#N)c(N)n(-c3ccc(C)cc3)c(=O)c2C#N)cc1
- EC50 [4]: > 112 µM (not active)
- EC50 [5]: < 3 µM (active)
- EC50 [6]: 2.3 µM (active)
- AC50 [7]: 9.08 µM (active)

Compound: O=C(CN1C(=O)c2ccccc2S1(=O)=O)N1CCc2ccccc21
- EC50 (HEK293 [8]): 0.53 µM (active)
- EC50 (HEK293 [9]): > 8 µM (inactive)
- AC50 [10]: 3.84 µM (active)
- AC50 [11]: 3.89 µM (active)
- AC50 [12]: 8.62 µM (active)
- IC50 [13]: 35.3 µM (not active)
- AC50 [14]: 2.89 µM (active)
- EC50 (HEK293 [15]): > 8 µM (not active)
- AC50 (Paired box protein Pax-8): 4.88 µM (active)
- EC50 (HEK293 [16]): > 8 µM (not active)
- EC50 [17]: > 8 µM (not active)
- IC50 [18]: > 80 µM (inactive)

Compound: O=C(O)CSc1ncnc2scc(-c3ccc(Br)cc3)c12
- EC50 [19]: > 55.7 µM (not active)
- EC50 [20]: > 55.7 µM (not active)

Next, values leading:

- EC50 [1]: 4.45 µM (active)
- EC50 [2]: 7.25 µM (active)
Compound: S=C(Nc1ccc(Oc2ccccc2)cc1)Nc1cccnc1

- Absolute IC50 (XBP1) (X-box-binding protein 1): 10 µM
Compound: O=C1CC(c2ccccc2Cl)CC(=O)C1=CNc1ccccc1 (configuration not stated)
